The source of these data is patent publication US20250122218A1, “MODULATORS OF CYSTIC FIBROSIS TRANSMEMBRANE CONDUCTANCE REGULATOR” (Vertex Pharmaceuticals Incorporated, priority 2022, published 2025).

This assay has as its target T1, CFTR in F508del/MF-HBE cells (Homo sapiens, UniProt P13569, DEL508-508).
T1 construct: human bronchial epithelial (HBE) cells derived from CF subjects heterozygous for F508del and a minimal function CFTR mutation; endogenous in cells; host or cells: primary human bronchial epithelial cells from CF subjects (F508del/MF-HBE)
Kind of assay: Ussing chamber assay of CFTR-mediated short-circuit currents (identification of potentiator compounds). The format is cell-based. The following applies: potentiator incubated 18-24 hours at 37° C. in combination with 10 μM corrector, in the presence of 20% human serum, CFTR-mediated ISC. Put shortly:
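F508del/MF-HBE cultures were preincubated 18-24 h at 37° C with potentiator plus 10 μM of a fixed corrector compound in 20% human serum; compounds were kept present during measurement. ISC was recorded under voltage clamp (0 mV, 37° C, amiloride apical) and taken as the 20 μM forskolin peak minus the current after inhibitor cocktail.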

T1 sequence (P13569 with tags, fused parts or gaps DEL508-508): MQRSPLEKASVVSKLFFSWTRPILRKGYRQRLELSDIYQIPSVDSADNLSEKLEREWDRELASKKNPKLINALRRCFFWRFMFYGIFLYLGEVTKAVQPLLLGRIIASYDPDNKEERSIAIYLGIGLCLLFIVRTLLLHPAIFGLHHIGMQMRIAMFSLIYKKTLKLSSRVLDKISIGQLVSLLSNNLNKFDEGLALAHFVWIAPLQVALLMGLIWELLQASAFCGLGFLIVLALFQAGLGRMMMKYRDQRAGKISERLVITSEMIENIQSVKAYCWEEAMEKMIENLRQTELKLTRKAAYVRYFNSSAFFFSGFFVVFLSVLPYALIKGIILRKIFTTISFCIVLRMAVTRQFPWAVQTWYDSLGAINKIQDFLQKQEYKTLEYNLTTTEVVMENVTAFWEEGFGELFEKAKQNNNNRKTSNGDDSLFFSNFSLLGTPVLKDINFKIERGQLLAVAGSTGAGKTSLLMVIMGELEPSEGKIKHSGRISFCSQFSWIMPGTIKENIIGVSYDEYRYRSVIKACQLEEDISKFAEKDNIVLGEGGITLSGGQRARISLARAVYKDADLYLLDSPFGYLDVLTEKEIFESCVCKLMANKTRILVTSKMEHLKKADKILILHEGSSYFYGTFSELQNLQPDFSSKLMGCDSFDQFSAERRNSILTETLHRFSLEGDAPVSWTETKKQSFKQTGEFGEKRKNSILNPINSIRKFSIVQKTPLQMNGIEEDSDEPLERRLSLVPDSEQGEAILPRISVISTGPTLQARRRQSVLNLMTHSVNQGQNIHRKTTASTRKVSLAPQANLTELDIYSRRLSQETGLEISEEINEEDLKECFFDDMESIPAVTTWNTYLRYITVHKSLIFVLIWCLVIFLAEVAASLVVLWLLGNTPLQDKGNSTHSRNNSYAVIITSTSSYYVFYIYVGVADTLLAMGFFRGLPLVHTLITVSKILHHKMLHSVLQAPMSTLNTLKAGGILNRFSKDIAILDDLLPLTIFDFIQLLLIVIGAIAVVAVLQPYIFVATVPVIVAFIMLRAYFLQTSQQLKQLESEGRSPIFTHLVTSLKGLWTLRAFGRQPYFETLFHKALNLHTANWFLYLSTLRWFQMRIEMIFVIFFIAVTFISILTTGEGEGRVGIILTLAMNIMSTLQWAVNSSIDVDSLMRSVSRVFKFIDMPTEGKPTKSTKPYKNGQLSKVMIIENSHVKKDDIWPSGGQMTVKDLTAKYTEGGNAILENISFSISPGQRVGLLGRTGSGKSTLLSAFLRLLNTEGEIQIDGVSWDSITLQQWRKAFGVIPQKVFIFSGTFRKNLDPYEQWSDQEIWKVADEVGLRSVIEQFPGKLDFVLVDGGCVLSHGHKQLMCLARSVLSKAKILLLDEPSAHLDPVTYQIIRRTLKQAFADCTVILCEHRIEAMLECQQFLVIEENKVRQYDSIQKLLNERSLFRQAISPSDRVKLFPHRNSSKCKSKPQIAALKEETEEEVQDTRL

By EC50 is commonly meant the midpoint of the concentration-response curve. As for `CC(C)(C)c1ccc(CN2CCCCC[C@](O)(C(F)(F)F)C3=NN=C(O3)c3nc(c(C(F)(F)F)cc3N)C2=O)cn1` [Compound 119, (6R)-17-Amino-12-[(6-tert-butyl-3-pyridyl)methyl]-6-hydroxy-6,15-bis (trifluoromethyl)-19-oxa-3,4,12,18-tetrazatricyclo [12.3.1.12,5] nonadeca-1(18),2,4,14,1 6-pentaen-13-one], the half-maximal effective concentration (EC50) was < 500 nM.

In the case of `CC(C)(C)c1ccc(CN2CCCCC[C@](O)(C(F)(F)F)C3=NN=C(O3)c3nc(c(C(F)(F)F)cc3N)C2=O)nc1` [Compound 120, (6R)-17-Amino-12-[(5-tert-butyl-2-pyridyl)methyl]-6-hydroxy-6,15-bis (trifluoromethyl)-19-oxa-3,4,12,18-tetrazatricyclo [12.3.1.12,5] nonadeca-1(18),2,4,14,1 6-pentaen-13-one], the EC50 is < 500 nM.

Consider `Nc1cc(C(F)(F)F)c2nc1-c1nnc(o1)[C@@](O)(C(F)(F)F)CCCCCN(C13CC(F)(C1)C3)C2=O` [Compound 121, (6R)-17-Amino-12-(3-fluoro-1-bicyclo[1.1.1]pentanyl)-6-hydroxy-6,15-bis (trifluorom ethyl)-19-oxa-3,4,12,18-tetrazatricyclo [12.3.1.12,5] nonadeca-1(18),2,4,14,1 6-pentaen-13-one], for which the EC50 was < 500 nM.

As to `CC12CC(N3CCCCC[C@](O)(C(F)(F)F)c4nnc(o4)-c4nc(c(C(F)(F)F)cc4N)C3=O)(C1)C2` [Compound 122, (6R)-17-Amino-6-hydroxy-12-(3-methyl-1-bicyclo[1.1.1]pentanyl)-6,15-bis (trifluoromethyl)-19-oxa-3,4,12,18-tetrazatricyclo [12.3.1.12,5] nonadeca-1(18),2,4,14,1 6-pentaen-13-one], the concentration giving a half-maximal response (EC50) was < 500 nM.

Turning to `CC(C)(C)C12CC(N3CCCCC[C@](O)(C(F)(F)F)c4nnc(o4)-c4nc(c(C(F)(F)F)cc4N)C3=O)(C1)C2` [Compound 123, (6R)-17-Amino-12-(3-tert-butyl-1-bicyclo[1.1.1]pentanyl)-6-hydroxy-6,15-bis (trifluoromethyl)-19-oxa-3,4,12,18-tetrazatricyclo [12.3.1.12,5] nonadeca-1(18),2,4,14,1 6-pentaen-13-one], the EC50 was < 500 nM.

`CC1(C)CCCC[C@](O)(C(F)(F)F)C2=NN=C(O2)c2nc(c(C(F)(F)F)cc2N)C(=O)N(Cc2ccc3c(c2)OC(F)(F)O3)C1` [Compound 124, (6R)-18-amino-13-[(2,2-difluoro-1,3-benzodioxol-5-yl)methyl]-6-hydroxy-11,11-dimethyl-6,16-bis (trifluoromethyl)-20-oxa-3,4,13,19-tetrazatricyclo [13.3.1.12,5]icosa-1(19),2,4,15,1 7-pentaen-14-one]: the EC50 was < 500 nM.

Regarding `Nc1cc(C(F)(F)F)c2nc1-c1nnc(o1)[C@@](O)(C(F)(F)F)CCCCCN(C13CCC(CC1)C3)C2=O` [Compound 125, (6R)-17-amino-6-hydroxy-12-norbornan-1-yl-6,15-bis (trifluoromethyl)-19-oxa-3,4,12,18-tetrazatricyclo [12.3.1.12,5] nonadeca-1(18),2,4,14,1 6-pentaen-13-one], the EC50 is < 500 nM.

As for `Nc1cc(C(F)(F)F)c2nc1-c1nnc(o1)[C@@](O)(C(F)(F)F)CCCCCN(c1cccnc1)C2=O` [Compound 126, (6R)-17-amino-6-hydroxy-12-(3-pyridyl)-6,15-bis (trifluoromethyl)-19-oxa-3,4,12,18-tetrazatricyclo [12.3.1.12,5] nonadeca-1(18),2,4,14,1 6-pentaen-13-one], the EC50 is > 1000 nM.

As to `Cc1ccccc1CN1CCCCC[C@](O)(C(F)(F)F)C2=NN=C(O2)c2nc(c(C(F)(F)F)cc2N)C1=O` [Compound 127, (6R)-17-amino-6-hydroxy-12-(0-tolylmethyl)-6,15-bis (trifluoromethyl)-19-oxa-3,4,12,18-tetrazatricyclo [12.3.1.12,5] nonadeca-1(18),2,4,14,1 6-pentaen-13-one], the EC50 is < 500 nM.

With `CC(C)n1cc(CN2CCCCC[C@](O)(C(F)(F)F)C3=NN=C(O3)c3nc(c(C(F)(F)F)cc3N)C2=O)cn1` [Compound 128, (6R)-17-amino-6-hydroxy-12-[(1-isopropylpyrazol-4-yl)methyl]-6,1-bis (trifluoromethyl)-19-oxa-3,4,12,18-tetrazatricyclo [12.3.1.12,5] nonadeca-1(18),2,4,14,1 6-pentaen-13-one], the EC50 was < 500 nM.

Regarding `CC(C)n1nccc1CN1CCCCC[C@](O)(C(F)(F)F)C2=NN=C(O2)c2nc(c(C(F)(F)F)cc2N)C1=O` [Compound 129, (6R)-17-amino-6-hydroxy-12-[(2-isopropylpyrazol-3-yl)methyl]-6,15-bis (trifluoromethyl)-19-oxa-3,4,12,18-tetrazatricyclo [12.3.1.12,5] nonadeca-1(18),2,4,14,1 6-pentaen-13-one], the concentration for a half-maximal effect (EC50) was < 500 nM.

Regarding `Nc1cc(C(F)(F)F)c2nc1-c1nnc(o1)[C@@](O)(C(F)(F)F)CCCCCN(CC1CCOCC1)C2=O` [Compound 132, (6R)-17-amino-6-hydroxy-12-(tetrahydropyran-4-ylmethyl)-6,15-bis (trifluoromethyl)-19-oxa-3,4,12,18-tetrazatricyclo [12.3.1.12,5] nonadeca-1(18),2,4,14,1 6-pentaen-13-one], the EC50 was < 500 nM.

On to `Cc1ccc(CN2CCCCC[C@](O)(C(F)(F)F)C3=NN=C(O3)c3nc(c(C(F)(F)F)cc3N)C2=O)cc1` [Compound 134, (6R)-17-amino-6-hydroxy-12-(p-tolylmethyl)-6,15-bis (trifluoromethyl)-19-oxa-3,4,12,18-tetrazatricyclo [12.3.1.12,5] nonadeca-1(18),2,4,14,1 6-pentaen-13-one], for which the EC50 is < 500 nM.

As to `Nc1cc(C(F)(F)F)c2nc1-c1nnc(o1)[C@@](O)(C(F)(F)F)CCCCCN(Cc1ccc(C(F)(F)F)cc1)C2=O` [Compound 135, (6R)-17-amino-6-hydroxy-6,15-bis (trifluoromethyl)-12-[[4-(trifluoromethyl)phenyl]methyl]-19-oxa-3,4,12,18-tetrazatricyclo [12.3.1.12,5] nonadeca-1(18),2,4,14,1 6-pentaen-13-one], the EC50 is < 500 nM.

Regarding `Nc1cc(C(F)(F)F)c2nc1-c1nnc(o1)[C@@](O)(C(F)(F)F)CCCCCN(Cc1ccc(F)cc1)C2=O` [Compound 136, (6R)-17-amino-12-[(4-fluorophenyl)methyl]-6-hydroxy-6,15-bis (trifluorom ethyl)-19-oxa-3,4,12,18-tetrazatricyclo [12.3.1.12,5] nonadeca-1(18),2,4,14,1 6-pentaen-13-one], the EC50 is < 500 nM.

Turning to `Nc1cc(C(F)(F)F)c2nc1-c1nnc(o1)[C@@](O)(C(F)(F)F)CCCCCN(CCc1ccccc1)C2=O` [Compound 137, (6R)-17-amino-6-hydroxy-12-(2-phenylethyl)-6,15-bis (trifluoromethyl)-19-oxa-3,4,12,18-tetrazatricyclo [12.3.1.12,5] nonadeca-1(18),2,4,14,1 6-pentaen-13-one], the EC50 is < 500 nM.

On to `COc1cccc(CN2CCCCC[C@](O)(C(F)(F)F)C3=NN=C(O3)c3nc(c(C(F)(F)F)cc3N)C2=O)c1` [Compound 138, (6R)-17-amino-6-hydroxy-12-[(3-methoxyphenyl)methyl]-6,15-bis (trifluorom ethyl)-19-oxa-3,4,12,18-tetrazatricyclo [12.3.1.12,5] nonadeca-1(18),2,4,14,1 6-pentaen-13-one], for which the concentration for a half-maximal effect (EC50) was < 500 nM.

As for `CC(C)c1cccc(CN2CCCCC[C@](O)(C(F)(F)F)C3=NN=C(O3)c3nc(c(C(F)(F)F)cc3N)C2=O)c1` [Compound 139, (6R)-17-amino-6-hydroxy-12-[(3-isopropylphenyl)methyl]-6,15-bis (trifluoromethyl)-19-oxa-3,4,12,18-tetrazatricyclo [12.3.1.12,5] nonadeca-1(18),2,4,14,1 6-pentaen-13-one], the half-maximal effective concentration (EC50) was < 500 nM.

Consider `Cc1cccnc1CN1CCCCC[C@](O)(C(F)(F)F)C2=NN=C(O2)c2nc(c(C(F)(F)F)cc2N)C1=O` [Compound 140, (6R)-17-amino-6-hydroxy-12-[(3-methyl-2-pyridyl)methyl]-6,15-bis (trifluoromethyl)-19-oxa-3,4,12,18-tetrazatricyclo [12.3.1.12,5] nonadeca-1(18),2,4,14,1 6-pentaen-13-one], for which the half-maximal effective concentration (EC50) is < 500 nM.

Regarding `Nc1cc(C(F)(F)F)c2nc1-c1nnc(o1)[C@@](O)(C(F)(F)F)CCCCCN(Cc1ccccc1OC(F)(F)F)C2=O` [Compound 141, (6R)-17-amino-6-hydroxy-12-[[2-(trifluoromethoxy)phenyl]methyl]-6,15-bis (trifluoromethyl)-19-oxa-3,4,12,18-tetrazatricyclo [12.3.1.12,5] nonadeca-1(18),2,4,14,1 6-pentaen-13-one], the 50% effective concentration (EC50) is < 500 nM.

For the compound `Nc1cc(C(F)(F)F)c2nc1-c1nnc(o1)[C@@](O)(C(F)(F)F)CCCCCN(Cc1cccc(OC(F)(F)F)c1)C2=O` [Compound 142, (6R)-17-amino-6-hydroxy-12-[[3-(trifluoromethoxy)phenyl]methyl]-6,15-bis (trifluoromethyl)-19-oxa-3,4,12,18-tetrazatricyclo [12.3.1.12,5] nonadeca-1(18),2,4,14,1 6-pentaen-13-one], the EC50 was < 500 nM.

In the case of `CC(C)Oc1ccc(CN2CCCCC[C@](O)(C(F)(F)F)C3=NN=C(O3)c3nc(c(C(F)(F)F)cc3N)C2=O)cc1` [Compound 143, (6R)-17-amino-6-hydroxy-12-[(4-isopropoxyphenyl)methyl]-6,15-bis (trifluoromethyl)-19-oxa-3,4,12,18-tetrazatricyclo [12.3.1.12,5] nonadeca-1(18),2,4,14,1 6-pentaen-13-one], the EC50 was < 500 nM.
